# Source: US20090111857A1, “1,2,4-TRIAZOLE ETHER DERIVATIVES AS MODULATORS OF MGLUR5” (AstraZeneca AB, priority 2007, published 2009)
# What was measured:
# [1] = Determination of brain to plasma ratio in rat; format: in vivo; details: brain and plasma, female Sprague Dawley rats, drug in brain over drug in plasma, read-out: Brain/Plasma Ratio of compound in Rat
# Experimental: Brain to plasma ratios are estimated in female Sprague Dawley rats. The compound is dissolved in water or another appropriate vehicle. For determination of brain to plasma ratio the compound is administrated as a subcutaneous, or an intravenous bolus injection, or an intravenous infusion, or an oral administration. At a predetermined time point after the administration a blood sample is taken with cardiac puncture. The rat is terminated by cutting the heart open, and the brain is immediately retained. The blood samples are collected in heparinized tubes and centrifuged within 30 minutes, in order to separate the plasma from the blood cells. The plasma is transferred to 96-well plates and stored at −20° C. until analysis. The brains are divided in halt and each half is placed in a pre-tarred tube and stored at −20° C. until analysis. Prior to the analysis, the brain samples are thawed and 3 mL/g brain tissue of distilled water is added to the tubes. The brain samples are sonicated in an ice bath until the samples are homogenized. Both brain and plasma samples are precipitated with acetonitrile. After centrifugation, the supernatant is diluted with 0.2% formic acid. Analysis is performed on a short reversed-phase HPLC column with rapid gradient elution and MSMS detection using a triple quadrupole instrument with electrospray ionisation and Selected Reaction Monitoring (SRM) acquisition. Liquid-liquid extraction may be used as an alternative sample clean-up. The samples are extracted, by shaking, to an organic solvent after addition of a suitable buffer. An aliquot of the organic layer is transferred to a new vial and evaporated to dryness under a stream of nitrogen. After reconstitution of the residuals the samples are ready for injection onto the HPLC column.
# [2] = target: T1, human mGluR5d (Homo sapiens, UniProt P41594); test: FLIPR assay: mobilization of intracellular calcium in cells expressing human mGluR5d; format: cell-based; details: antagonism of agonist-induced [Ca2+]i response, read-out: FLIPR hmGluR5d
# T1 construct: expressed in transfected cells; The separate IP3 assay names GHEK cells
# T1 sequence (P41594 21-942 isoform P41594-3 limits assumed): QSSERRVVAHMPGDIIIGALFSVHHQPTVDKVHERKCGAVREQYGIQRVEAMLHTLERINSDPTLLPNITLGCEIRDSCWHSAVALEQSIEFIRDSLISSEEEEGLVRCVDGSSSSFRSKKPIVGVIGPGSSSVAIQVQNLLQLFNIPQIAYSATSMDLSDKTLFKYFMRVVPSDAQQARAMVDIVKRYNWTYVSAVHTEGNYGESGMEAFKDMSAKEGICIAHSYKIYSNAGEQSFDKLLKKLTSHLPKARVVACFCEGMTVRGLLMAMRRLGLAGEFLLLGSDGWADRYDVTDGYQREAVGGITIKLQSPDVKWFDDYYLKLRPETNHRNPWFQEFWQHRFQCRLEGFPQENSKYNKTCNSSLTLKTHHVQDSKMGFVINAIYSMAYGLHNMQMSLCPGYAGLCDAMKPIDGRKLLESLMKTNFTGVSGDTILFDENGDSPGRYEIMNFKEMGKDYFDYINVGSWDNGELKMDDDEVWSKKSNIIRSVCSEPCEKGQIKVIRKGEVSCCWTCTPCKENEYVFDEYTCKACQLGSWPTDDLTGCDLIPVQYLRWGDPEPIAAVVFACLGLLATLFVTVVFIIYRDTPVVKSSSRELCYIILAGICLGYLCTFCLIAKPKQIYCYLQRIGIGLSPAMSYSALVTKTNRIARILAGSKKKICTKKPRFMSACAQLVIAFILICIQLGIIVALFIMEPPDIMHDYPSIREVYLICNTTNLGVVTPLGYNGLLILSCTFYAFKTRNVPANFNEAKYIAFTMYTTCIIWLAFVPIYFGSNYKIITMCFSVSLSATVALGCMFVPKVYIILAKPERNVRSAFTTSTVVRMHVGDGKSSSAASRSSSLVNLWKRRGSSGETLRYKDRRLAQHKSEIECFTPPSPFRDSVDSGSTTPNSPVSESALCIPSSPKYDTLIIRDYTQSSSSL
# Excerpt: Functional Assessment of mGluR5 Antagonism in Cell Lines Expressing mGluR5D
# The properties of the compounds of the invention can be analyzed using standard assays for pharmacological activity. Examples of glutamate receptor assays are well known in the alt as described in for example Aramori et al., Neuron 8:757 (1992), Tanabe et al., Neuron 8:169 (1992), Miller et al., J. Neuroscience 15: 6103 (1995), Balazs, et al., J. Neurochemistry 69:151 (1997). The methodology described in these publications is incorporated herein by reference. Conveniently, the compounds of the invention can be studied by means of an assay (FLIPR) that measures the mobilization of intracellular calcium, [Ca^2+]i in cells expressing mGluR5 or another assay (IP3) that measures inositol phosphate turnover.
# Cells expressing human mGluR5d as described in WO97/05252 cultured in a mixture of high glucose DMEM with Glutamax (31966-021)(500 mL), 10% dialyzed fetal bovine serum (Hyclone #SH30079.03)(56 mL), 200 μg/in L Hygromycin B (Invitrogen 45-0430, 50 mg/mL)(2.2 mL), 200 μg/mL Zeocin (Invitrogen #R250-01; 100 mg/mL)(1.1 mL) are seeded at a density of 100,000 cells per well on collagen coated clear bottom 96-well plates with black sides and cells were allowed to adhere over night before experiments. All assays are done in a buffer containing 146 mM NaCl, 5 mM KCl, 1 mM MgCl2, 1 mM CaCl2, 20 mM HEPES, 1 mg/mL glucose and 1 mg/mL BSA Fraction IV (pH 7.4). Cell cultures in the 96-well plates are loaded for 60 minutes in the above mentioned buffer containing 6 μM of the acetoxymethyl ester form of the fluorescent calcium indicator fluo-3 (Molecular Probes, Eugene, Oreg.) in 0.025% pluronic acid (a proprietary, non-ionic surfactant polyol—CAS Number 9003-11-6). Following the loading period the fluo-3 buffer is removed and replaced with fresh assay buffer. FLIPR experiments are done using a laser setting of 0.700 W and a 0.4 second CCD camera shutter speed with excitation and emission wavelengths of 488 nm and 562 nm, respectively. Each experiment is initiated with 160 μl of buffer present in each well of the cell plate. A 40 μl addition from the antagonist plate was followed by a 50 μL addition from the agonist plate. A 30 minutes, in dark at 25° C., interval separates the antagonist and agonist additions. The fluorescence signal is sampled 50 times at 1-second intervals followed by 3 samples at 5-second intervals immediately after each of the two additions. Responses are measured as the difference between the peak heights of the response to agonist less the background fluorescence within the sample period. IC50 determinations are made using a […] least squares fitting program.
Kp [1],IC50 [2],SMILES
0.03,8 nM,"C[C@@H](Oc1nnc(-c2ccc(C(N)=O)cc2)n1C)c1noc(-c2cccc(Cl)c2)n1 [Example 10.1, 4-(5-{(1R)-1-[5-(3-Chlorophenyl)-1,2,4-oxadiazol-3-yl]ethoxy}-4-methyl-4H-1,2,4-triazol-3-yl)benzamide]"
0.01,6 nM,"C[C@@H](Oc1nnc(-c2ccc(C(N)=O)cc2)n1C)c1nnn(-c2cccc(Cl)c2)n1 [Example 10.2, 4-(5-{(1R)-1-[2-(3-Chlorophenyl)-2H-tetrazol-5-yl]ethoxy}-4-methyl-4H-1,2,4-triazol-3-yl)benzamide]"
0.075,5 nM,"C[C@@H](Oc1nnc(-c2ccc(C(N)=O)cn2)n1C)c1nnn(-c2cccc(Cl)c2)n1 [Example 10.3, 6-(5-{(1R)-1-[2-(3-Chlorophenyl)-2H-tetrazol-5-yl]ethoxy}-4-methyl-4H-1,2,4-triazol-3-yl)nicotinamide]"
0.09,6 nM,"Cc1cccc(-n2nnc([C@@H](C)Oc3nnc(-c4ccc(C(N)=O)cn4)n3C)n2)c1 [Example 10.4, 6-(4-Methyl-5-{(1R)-1-[2-(3-methylphenyl)-2H-tetrazol-5-yl]ethoxy}-4H-1,2,4-triazol-3-yl)nicotinamide]"
